Series [1] has as its system PC-9. The experiment in a line: Cytotoxicity against human PC-9 cells assessed as reduction in cell viability incubated for 24 hrs by MTT assay. It is filed as functional, cell-based. The note with it: PC-9, 24 h.
Series [2] has as its system NCI-H460. The experiment in a line: Cytotoxicity against human NCI-H460 cells assessed as reduction in cell viability incubated for 24 hrs by MTT assay. It is filed as functional, cell-based. As to conditions: NCI-H460, 24 h. For orientation: Tetrazolium dyes change colour on reduction, which living cells bring about.
Series [3] relates to A549. The experiment in a line: Cytotoxicity against human A549 cells assessed as reduction in cell viability incubated for 24 hrs by MTT assay. It is filed as functional, cell-based. The note with it: A549, 24 h.
In series [4] the test system is Quadruplex DNA. The experiment in a line: Binding affinity to wildtype Tel26 G4 DNA (5'-TTAGGGTTAGGGTTAGGGTTAGGGTT-3') (unknown origin) at 10:1 compound:DNA ratio incubated for 30 mins by ESI-MS analysis. It is filed as nucleic-acid assay.
In series [5] the test system is NCI-H1650. The experiment in a line: Cytotoxicity against human NCI-H1650 cells assessed as reduction in cell viability incubated for 24 hrs by MTT assay. It is filed as functional, cell-based. The note with it: NCI-H1650, 24 h.
A short description of series [6]: Cytotoxicity against human BEAS-2B cells assessed as reduction in cell viability incubated for 24 hrs by MTT assay. It is filed as toxicity, cell-based.
Series [7] has as its system Quadruplex DNA. The experiment in a line: Binding affinity to Tel23 G4 DNA (unknown origin) in PBS at pH 7.1 at 1.5 mM by wLOGSY analysis. It is filed as nucleic-acid assay.
Series [8] deals with NCI-H1975. The experiment in a line: Cytotoxicity against human NCI-H1975 cells assessed as reduction in cell viability incubated for 24 hrs by MTT assay. It is filed as functional, cell-based. As to conditions: NCI-H1975, 24 h.
In series [9] the test system is NCI-H358. The experiment in a line: Cytotoxicity against human NCI-H358 cells assessed as reduction in cell viability incubated for 24 hrs by MTT assay. It is filed as functional, cell-based. The note with it: NCI-H358, 24 h.

Calls of active or inactive are those of the source. The rule behind the calls is not given here. Bounds are passed on as bounds.

One may read the IC50 as the concentration at which inhibition is half-maximal. Consider `OCCN1CCN(CC#Cc2c3ccccc3c(C#CCN3CCN(CCO)CC3)c3ccccc23)CC1`, for which the IC50 was 2.5 µM in series [1]; 1.91 µM in series [2]; 5.2 µM in series [3]; above 10 µM in [5]; 3.22 µM in series [8]; 6.21 µM in series [9]. For the same compound, the result in series [4] and in series [7] was Active. Besides, the IC50 at 24 h in [6] came to 1.07 µM.

For the origin of these results see ChEMBL document CHEMBL6071164, “9,10-Bis[(4-(2-hydroxyethyl)piperazine-1-yl)prop2-yne-1-yl]anthracene: G-Quadruplex Selectivity and Anticancer Activity” (ACS Med Chem Lett, 2024).
